Source: patent US9393288B2, “Methods of treating diseases associated with PPARγ” (The University of Vermont and State Agricultural College, priority 2012, dated 2016)

Test system: middle cerebral arteries (MCA)
Assay: Pressurized arteriograph: structure of MCA from female SHR
Assay type: in vivo, rat
Details: SHR-F-Rln vs untreated SHR-F
Protocol: A separate group of SHR-F was used to determine if relaxin crosses the BBB by treating with relaxin (4 μg/hr) for 14 days and measuring relaxin concentration in cerebrospinal fluid (CSF) and serum (SHR-F-Rln-CSF, n=4). For the osmotic pump implant, animals were anesthetized with 3% isoflurane and minipumps implanted subcutaneously in the back of the neck. All animals received post-surgical analgesia (buprenorphine, 50 μg/kg, s.c.). Relaxin infusion was continuous for 14 days until animals were euthanized for isolated vessel experiments and tissue collection.
After collecting trunk blood, the brain was quickly removed and placed in cold physiological salt solution (PSS). […] Temperature and pH were continuously measured and maintained at 37.0±0.5° C. and 7.40±0.05, respectively. […]
PA and MCA were equilibrated for 1 hour, after which myogenic activity was determined by stepwise increases in pressure from 40 to 100 mmHg for PA or 50 to 175 mmHg for MCA. ID and WT were measured at each pressure once stable. […] To obtain structural measurements, ID and WT were recorded at pressures between 5 to 200 mmHg for PA or 5 to 175 mmHg for MCA in zero-calcium PSS containing ethylene glycol tetra-acetic acid (EGTA) and outer diameter (OD) and distensibility calculated.
Percent tone was calculated as percent decrease in ID from the passive diameter at each intravascular pressure: [1−(IDactive/IDpassive)]×100. […]

For relaxin, the “Structure of MCA (passive ID, WT, distensibility)” value was “no effect”.
